The values that follow come from patent publication US11352356B2, “Inhibitors of plasma kallikrein and uses thereof” (Takeda Pharmaceutical Company Limited, priority 2018, dated 2022).

This assay concerns the target human activated kallikrein enzyme (Homo sapiens (Human), UniProt P03952). The assay is described as follows: Inhibition of human activated plasma kallikrein, fluorogenic peptide substrate assay, 500 pM enzyme format. Conditions: read-out: Primary Dose Response Assay: Average EC50. The class given is biochemical. How it is done: Example compounds were evaluated for inhibition of the human activated kallikrein enzyme in two formats of an assay employing a fluorogenic peptide substrate. In one assay format, the concentrations of reagents were as follows: 20 mM Tris pH 7.5, 1 mM EDTA, 150 mM sodium chloride, 0.1% PEG-400, 0.1% Triton X-100, 500 pM activated kallikrein enzyme, 300 uM Pro-Phe-Arg-7-amido-4-methylcoumarin substrate. Prior to reaction initiation with substrate, enzyme and inhibitors were preincubated for 30 min at RT. After initiation with substrate, reactions were incubated for 10 min at RT and fluorescence emission at 460 nm from 380 nm excitation measured with a microplate reader. In another assay format, the concentrations of reagents were as follows: 20 mM Tris pH 7.5, 1 mM EDTA, 150 mM sodium chloride, 0.1% PEG-400, 0.1% Triton X-100, 5 pM activated kallikrein enzyme, 300 uM Pro-Phe-Arg-7-amido-4-methylcoumarin substrate. Prior to reaction initiation with substrate, enzyme and inhibitors were preincubated for 30 min at RT. After initiation with substrate, reactions were incubated for 18 h at RT and fluorescence emission at 460 nm from 380 nm excitation measured with a microplate reader.

The mark [1] stands for this setting: 500 pM activated kallikrein, 300 uM Pro-Phe-Arg-7-amido-4-methylcoumarin substrate, 30 min preincubation, 10 min reaction at RT.

Where two headings read alike, the source gives them in different places.

Chain of human activated kallikrein enzyme (P03952 391-638): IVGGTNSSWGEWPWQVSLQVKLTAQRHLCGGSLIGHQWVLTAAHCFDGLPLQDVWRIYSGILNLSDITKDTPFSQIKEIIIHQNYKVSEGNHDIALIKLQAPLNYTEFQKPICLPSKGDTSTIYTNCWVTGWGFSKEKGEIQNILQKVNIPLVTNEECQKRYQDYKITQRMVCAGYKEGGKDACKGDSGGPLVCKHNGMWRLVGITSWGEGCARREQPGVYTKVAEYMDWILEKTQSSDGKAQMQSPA
Chain of human activated kallikrein enzyme (P03952 20-390 partner): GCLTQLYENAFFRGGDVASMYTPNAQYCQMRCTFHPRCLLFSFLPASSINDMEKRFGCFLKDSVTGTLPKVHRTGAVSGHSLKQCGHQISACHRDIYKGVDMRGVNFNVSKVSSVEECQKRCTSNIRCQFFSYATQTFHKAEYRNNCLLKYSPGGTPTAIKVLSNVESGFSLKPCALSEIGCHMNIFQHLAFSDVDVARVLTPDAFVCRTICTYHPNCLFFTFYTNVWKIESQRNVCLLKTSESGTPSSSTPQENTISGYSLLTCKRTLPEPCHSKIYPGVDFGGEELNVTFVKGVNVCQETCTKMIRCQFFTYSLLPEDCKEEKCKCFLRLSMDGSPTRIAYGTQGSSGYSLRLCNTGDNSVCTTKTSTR

As for “1-(2-((4-(((7-chloroimidazo[1,5-a]pyridin-1-yl)methyl)carbamoyl)-1H-pyrazol-1-yl)methyl)imidazo[1,2-a]pyridin-8-yl)cyclopropane-1-carboxylic acid [I-116]”, the EC50 under setting [1] fell in the range of 1 to 10 nM.
Regarding `O=C(NCc1ncn2ccc(Cl)cc12)c1cnn(Cc2cn3nc(C4CC4)ccc3n2)c1` [I-11, N-((7-chloroimidazo[1,5-a]pyridin-1-yl)methyl)-1-((6-cyclopropylimidazo[1,2-b]pyridazin-2-yl)methyl)-1H-pyrazole-4-carboxamide], under setting [1], the EC50 is 1 to 10 nM.
Still for that read-out and setting: the value for `COc1ccc2nc(CNC(=O)c3cnn(Cc4cn5ccc(C6CC6)cc5n4)c3)cn2c1` [I-12, 1-((7-cyclopropylimidazo[1,2-a]pyridin-2-yl)methyl)-N-((6-methoxyimidazo[1,2-a]pyridin-2-yl)methyl)-1H-pyrazole-4-carboxamide] was 10 to 100 nM; that for `O=C(NCc1ncn2ccc(Cl)c(F)c12)c1cn(Cc2cc3ccc(C4CC4)cc3o2)nn1` [I-219, N-((7-chloro-8-fluoroimidazo[1,5-a]pyridin-1-yl)methyl)-1-((6-cyclopropylbenzofuran-2-yl)methyl)-1H-1,2,3-triazole-4-carboxamide] was 10 to 100 nM; that for `O=C(NCc1ncn2ccc(Cl)c(F)c12)c1cn(Cc2cn3cc(C4CC4)cc(CC(F)C(=O)O)c3n2)nn1` (centres unmarked) [I-224b, 3-(2-((4-(((7-chloro-8-fluoroimidazo[1,5-a]pyridin-1-yl)methyl)carbamoyl)-1H-1,2,3-triazol-1-yl)methyl)-6-cyclopropylimidazo[1,2-a]pyridin-8-yl)-2-fluoropropanoic acid] was under 1 nM.
As to `CC(C)(C(=O)O)C(O)c1cc(C2CC2)cn2cc(Cn3cc(C(=O)NCc4ncn5ccc(Cl)c(F)c45)nn3)nc12` (centres unmarked) [I-241b, 3-(2-((4-(((7-chloro-8-fluoroimidazo[1,5-a]pyridin-1-yl)methyl)carbamoyl)-1H-1,2,3-triazol-1-yl)methyl)-6-cyclopropylimidazo[1,2-a]pyridin-8-yl)-3-hydroxy-2,2-dimethylpropanoic acid], under setting [1], the EC50 is under 1 nM.
In the case of `CCOC(=O)CCn1c(Cn2cc(C(=O)NCc3ncn4ccc(Cl)c(F)c34)nn2)cc2cc(C3CC3)ccc21` [I-251a, Ethyl 3-(2-((4-(((7-chloro-8-fluoroimidazo[1,5-a]pyridin-1-yl)methyl)carbamoyl)-1H-1,2,3-triazol-1-yl)methyl)-5-cyclopropyl-1H-indol-1-yl)propanoate], under setting [1], the EC50 lay in the range of 1 to 10 nM.
On the same count and under the same terms, in the case of `O=C(NCc1ncn2ccc(Cl)c(F)c12)c1cn(Cc2cn3ccccc3n2)nn1` [I-286, N-((7-chloro-8-fluoroimidazo[1,5-a]pyridin-1-yl)methyl)-1-(imidazo[1,2-a]pyridin-2-ylmethyl)-1H-1,2,3-triazole-4-carboxamide] it was 10 to 100 nM.
Consider `O=C(NCc1ncn2ccc(Cl)c(F)c12)c1cn(Cc2ccc3nccnc3c2)nn1` [I-292, N-((7-chloro-8-fluoroimidazo[1,5-a]pyridin-1-yl)methyl)-1-(quinoxalin-6-ylmethyl)-1H-1,2,3-triazole-4-carboxamide], for which the EC50 under setting [1] was in the range of 10 to 100 nM.
With `Cc1ccn2cc(Cn3cc(C(=O)NCc4cnc5ccc(Cl)cn45)cn3)nc2c1` [reference compound], where the note is “comparative compounds, 500 pM activated kallikrein format”, the EC50 lay in the range of 100 to 2000 nM.
As to “Ethyl 1-(2-((4-(((7-chloroimidazo[1,5-a]pyridin-1-yl)methyl)carbamoyl)-1H-pyrazol-1-yl)methyl)imidazo[1,2-a]pyridin-8-yl)cyclopropane-1-carboxylate [I-115]”, under setting [1], the EC50 was under 1 nM.
With “N-((7-chloro-8-fluoroimidazo[1,5-a]pyridin-1-yl)methyl)-1-((8-(2-cyano-2-methylpropyl)-6-cyclopropylimidazo[1,2-a]pyridin-2-yl)methyl)-1H-pyrazole-4-carboxamide [I-237]”, under setting [1], the EC50 was under 1 nM.
On the same count and under the same terms, the value for “N-((7-chloroimidazo[1,5-a]pyridin-1-yl)methyl)-1-((6-cyclopropyl-8-(2-methoxyethoxy)imidazo[1,2-a]pyridin-2-yl)methyl)-1H-pyrazole-4-carboxamide [I-103]” was under 1 nM.
As to “N-((7-chloroimidazo[1,5-a]pyridin-1-yl)methyl)-1-((8-(1-(hydroxymethyl)cyclopropyl)imidazo[1,2-a]pyridin-2-yl)methyl)-1H-pyrazole-4-carboxamide [I-117]”, under setting [1], the EC50 was under 1 nM.
